Measurements reported in patent publication US5756532A, “Aminomethyl-2 3 8 9-tetrahydro-7H-1 4-dioxino[2 3-E]-indol-8-ones and derivatives” (American Home Products Corporation, priority 1996, dated 1998).

Tests used:
[1] = target: T1, dopamine D2 receptor (Rattus norvegicus, UniProt P61169); test: Affinity for the dopamine D2 receptor (3H-quinpirole, rat striatal brain tissue homogenate); type: binding; details: homogenized rat striatal brain tissue
T1 construct: homogenized rat striatal brain tissue; from tissue; host or cells: rat striatum (homogenate)
Protocol: Affinity for the dopamine D2 receptor was established by a modification of the standard experimental test procedure of Seemen and Schaus, European Journal of Pharmacology 203: 105-109, 1991, wherein homogenized rat striatal brain tissue is incubated with ^3 H-quinpirole and various concentrations of test compound, filtered and washed and counted in a Betaplate scintillation counter.

[2] = test system: mouse locomotor activity; test: Reduction of mouse locomotor activity (hypolocomotion); type: in vivo, mouse (male, CF-1); details: 20 min, sc, horizontal activity counts collected 10 to 20 minutes after dosing
Protocol: The antipsychotic activity of the compounds of the invention was further established by a determination of the compounds' ability to reduce mouse locomotor activity according to the method of Martin and Bendensky, J. Pharmacol. Exp. Therap. 229: 706-711, 1984, in which mice (male, CF-1, Charles River, 20-30 g) were injected with vehicle or various doses of each drug and locomotor activity was measured for 30 minutes using automated infrared activity monitors (Omnitech-8×8 inch open field) located in a darkened room. ED50 's were calculated from the horizontal activity counts collected from 10 to 20 minutes after dosing using a nonlinear regression analysis with inverse prediction.

T1 sequence (P61169 whole entry): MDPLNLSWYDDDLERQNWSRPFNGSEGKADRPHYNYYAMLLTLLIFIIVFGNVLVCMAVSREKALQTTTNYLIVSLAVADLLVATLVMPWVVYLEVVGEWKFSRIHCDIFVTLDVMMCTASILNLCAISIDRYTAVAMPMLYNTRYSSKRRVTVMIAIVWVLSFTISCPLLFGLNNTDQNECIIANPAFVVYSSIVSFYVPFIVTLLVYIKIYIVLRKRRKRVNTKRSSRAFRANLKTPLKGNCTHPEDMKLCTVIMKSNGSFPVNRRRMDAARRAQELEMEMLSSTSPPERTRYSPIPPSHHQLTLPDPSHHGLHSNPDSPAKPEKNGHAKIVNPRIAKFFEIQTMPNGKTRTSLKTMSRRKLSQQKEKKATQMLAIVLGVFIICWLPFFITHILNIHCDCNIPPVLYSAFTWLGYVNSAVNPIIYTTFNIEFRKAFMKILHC

Compound	IC50 [1] [pM]	ED50 [2] [mg/kg]
O=C1Nc2ccc3c(c2C1=Cc1ccccc1)O[C@@H](CNCc1ccccc1)CO3 [Example 2, 2-(Benzylamino-methyl)-1-benzylidene-2,3,8,9-tetrahydro-7H-1,4-dioxino[2,3-e]indol-8-one]	2800	
O=C1Cc2c(ccc3c2O[C@@H](CNCCCc2c[nH]c4ccccc24)CO3)N1 [Example 3, 2-{[3-(Indol-3-yl)-propylamino]-methyl}-2,3,8,9-tetrahydro-7H-1,4-dioxino-[2,3-e]indol-8-one]	140	0.039
O=C1Cc2c(ccc3c2O[C@@H](CNCCc2c[nH]c4ccccc24)CO3)N1 [Example 4]	1790	
O=C1Cc2c(ccc3c2O[C@@H](CNCCCO)CO3)N1 [Example 5, 2-[(3-Hydroxy-propylamino)-methyl]-2,3,8,9-tetrahydro-7H-1,4-dioxino[2,3-e]indol-8-one]	1420	
O=C1CCc2c(ccc3c2O[C@@H](CNCc2ccccc2)CO3)N1 [Example 6, 2-(Benzylamino-methyl)-2,3,9,10-tetrahydro-7H-1,4-dioxino[2,3-f]quinolin-8-one]	12300	
Cc1ccc(CNC[C@H]2COc3ccc4c(c3O2)CC(=O)N4)cc1 [Example 7]	340	0.005
NC[C@H]1COc2ccc3c(c2O1)CC(=O)N3 [Example 8, 2-Aminomethyl-2,3,8,9-tetrahydro-7H-1,4-dioxino[2,3-e]indol-8-one]	9930	
O=C1Cc2c(ccc3c2O[C@@H](CNCC2CCCCC2)CO3)N1 [Example 9, 2-(Cyclohexylmethylamino-methyl)-2,3,8,9-tetrahydro-7H-1,4-dioxino[2,3-e]indol-8-one]	370	
O=C1Cc2c(ccc3c2O[C@@H](CNCCc2cccnc2)CO3)N1 [Example 10, 2-[(2-Pyridin-3yl-ethylamino)-methyl]-2,3,8,9-tetrahydro-7H-1,4-dioxino-[2,3-e]indol-8one]	3060	
CN(C)c1cccc(OCCCNC[C@H]2COc3ccc4c(c3O2)CC(=O)N4)c1 [Example 11]	1300	0.0138
O=C1Cc2c(ccc3c2O[C@@H](CNCc2cccs2)CO3)N1 [Example 12, 2-{[(Thionphen-2-ylmethyl)-amino]-methyl}-2,3,8,9-tetrahydro-7H-1,4-dioxino[2,3-e]indol-8-one]	510	0.0005
O=C1Cc2c(ccc3c2O[C@@H](CNCCCOc2ccc4cccnc4c2)CO3)N1 [Example 13]	1390	
O=C1Cc2c(ccc3c2O[C@@H](CNCC24CC5CC(CC(C5)C2)C4)CO3)N1 [Example 14]	430	0.008
O=C1Cc2c(ccc3c2O[C@H](CNCc2ccccc2)CO3)N1 [Example 15, 2-(Benzylamino-methyl)-2,3,8,9-tetrahydro-7H-4-dioxino[2,3-e]indol-8-one]	3330	0.09
CCCCCNC[C@H]1COc2ccc3c(c2O1)CC(=O)N3 [Example 16, 2-(Pentylaminomethyl)-2,3,8,9-tetrahydro-7H-1,4-dioxino[2,3-e]indol-8-one]	450	
COc1ccc(CNC[C@H]2COc3ccc4c(c3O2)CC(=O)N4)cc1 [Example 17, 2-[(4-Methoxy-benzylamino)-methyl]-2,3,8,9-tetrahydro-7H-1,4-dioxino[2,3-e]indol-8-one]	680	0.027
O=C1Cc2c(ccc3c2O[C@@H](CNCc2cccc4ccccc24)CO3)N1 [Example 18, 2-(Napthalen-1-yl-methylamino-methyl)-2,3,8,9-tetrahydro-7H-1,4-dioxono[2,3-e]indol-8-one]	490	
O=C1Cc2c(ccc3c2O[C@@H](CNCc2ccc(C(F)(F)F)cc2)CO3)N1 [Example 19, 2-(4-Trifluoromethyl-benzylamino-methyl)-2,3,8,9-tetrahydro-7H-1,4-dioxino [2,3-e]indol-8-one]	340	
O=C1Cc2c(ccc3c2O[C@@H](CNCc2ccc(F)cc2)CO3)N1 [Example 20, 2-(4-Fluoro-benzylamino)-methyl-2,3,8,9-tetrahydro-7H-1,4-dioxino[2,3-e]-indol-8-one]	290	
O=C1Cc2c(ccc3c2O[C@@H](CNCCCCc2ccccc2)CO3)N1 [Example 21, 2-(4-Phenyl-butylamino)-methyl-2,3,8,9-tetrahydro-7H-1,4-dioxino[2,3-e]indol-8-one]	330	
O=C1Nc2ccc3c(c2C1=Cc1ccc(F)cc1)O[C@@H](CNCc1ccc(F)cc1)CO3 [Example 22]	17700	

Compound	IC50 [1] [pM]	ED50 [2] [mg/kg]
CC(=O)Nc1cccc(OCCCNC[C@H]2COc3ccc4c(c3O2)CC(=O)N4)c1 [Example 23, N-(3-{3-[(8-Oxo-2,3,8,9-tetrahydro-7H-1,4-dioxinor[2,3-e]indol-2-ylmethyl)-amino]-propoxy}-phenyl)-acetamide]	890	
O=C1Cc2c(ccc3c2O[C@@H](CNCc2cccc(C(F)(F)F)c2)CO3)N1 [Example 25, 2-[(3-Trifluoromethyl-benzylamino)-methyl]-2,3,8,9-tetrahydro-7H-1,4-dioxino [2,3-e]indol-8-one]	1040	
O=C1Nc2ccc3c(c2C1=O)O[C@@H](CNCc1ccccc1)CO3 [Example 26]	520	
Cc1ccc(CNC[C@H]2COc3cc(C)c4c(c3O2)CC(=O)N4)cc1 [Example 28, 2-[(4-Methyl-benzylamino)-methyl]-6-methyl-2,3,8,9-tetrahydro-7H-1,4-dioxino[2,3-e]indol-8-one]	1390	0.024
Cc1cc2c(c3c1NC(=O)C3)O[C@@H](CNCc1cccs1)CO2 [Example 29, 2-{[(Thiophene-2-ylmethyl)-amino]-methyl}-6-methyl-2,3,8,9-tetrahydro-7H-1,4-dioxino[2,3-e]indol-8-one]	3300	
Cc1cc2c(c3c1NC(=O)C3)O[C@@H](CNCc1ccccc1)CO2 [Example 31, 2-(Benzylamino-methyl)-6-methyl-2,3,8,9-tetrahydro-7H-1,4-dioxino[2,3-e]indol-8-one]	1300	
Cc1cc2c(c3c1NC(=O)C3)O[C@@H](CNCc1ccc(F)cc1)CO2 [Example 32]	2150	
O=C1Cc2c(c(F)cc3c2O[C@@H](CNCc2ccccc2)CO3)N1 [Example 33, 2-(Benzylamino-methyl)-6-fluoro-2,3,8,9-tetrahydro-7H-1,4-dioxino[2,3-e]indol-8-one]	570	
O=C1Cc2c(c(F)cc3c2O[C@@H](CNCc2ccc(F)cc2)CO3)N1 [Example 34, 6-Fluoro-2-[(4-fluoro-benzylamino)-methyl]-2,3,8,9-tetrahydro-7H-1,4-dioxino[2,3-e]indol-8-one]	560	
Cc1ccc(C=C2C(=O)Nc3c(F)cc4c(c32)O[C@@H](CNCc2ccc(C)cc2)CO4)cc1 [Example 35, 6-Fluoro-2-[(4-methyl-benzylamino)-methyl]-9-(4-methyl-benzylidene)-2,3.8.9-tetrahydro-7H-1,4-dioxino[2,3-e]indol-8-one]	52100	
Cc1ccc(CNC[C@H]2COc3cc(F)c4c(c3O2)CC(=O)N4)cc1 [Example 36, 6-Fluoro-2-[(4-methyl-benzylamino)-methyl]-2,3,8,9-tetrahydro-7H-1,4-dioxino[2,3-e]indol-8-one]	350	
CN(C)c1cccc(OCCCNC[C@H]2COc3cc(F)c4c(c3O2)CC(=O)N4)c1 [Example 37, 2-{[3-(3-Dimethylamino-phenoxy)-propylamino]-methyl}-6-fluoro-2,3,8,9-tetrahydro-7H-1,4-dioxino[2,3-e]indol-8-one]	510	
O=C1Cc2c(c(F)cc3c2O[C@@H](CNCC24CC5CC(CC(C5)C2)C4)CO3)N1 [Example 38, 2-{[(Adamantan-1-ylmethyl)-amino]-methyl}-6-fluoro-2,3,8,9-tetrahydro-7H-1,4-dioxino[2,3-e]indol-8-one]	1080	
O=C1Cc2c(c(F)cc3c2O[C@@H](CNCc2ccc(Cl)cc2)CO3)N1 [Example 40, 2-[(4-Chloro-benzylamino)-methyl]-6-fluoro-2,3,8,9-tetrahydro-7H-1,4-dioxino[2,3-e]indol-8-one]	530	
O=C1Cc2c(c(F)cc3c2O[C@@H](CNCc2ccc(C(F)(F)F)cc2)CO3)N1 [Example 41, 6-Fluoro-2-[(4-trifluoromethyl-benzylamino)-methyl]-2,3,8,9-tetrahydro-7H-dioxino[2,3-e]indol-8-one]	560	
O=C1Cc2c(c(F)cc3c2O[C@@H](CNCCCCc2ccccc2)CO3)N1 [Example 42, 6-Fluoro-2-[(4-phenyl-butylamino)-methyl]-2,3,8,9-tetrahydro-7H-1,4-dioxino[2,3-e]indol-8-one]	670	
O=C1Cc2c(c(Cl)cc3c2O[C@@H](CNCc2ccc(Cl)cc2)CO3)N1 [Example 43, 6-Chloro-2-[(4-chloro-benzylamino)-methyl]-2,3,8,9-tetrahydro-7H-1,4-dioxino[2,3-e]indol-8-one]	980	
Cc1ccc(CNC[C@H]2COc3cc(Cl)c4c(c3O2)CC(=O)N4)cc1 [Example 44, 6-Chloro-2-[(4-methyl-benzylamino)-methyl]-2,3,8,9-tetrahydro-7H-1,4-dioxino[2,3-e]indol-8-one]	1430	
O=C1Cc2c(c(Cl)cc3c2O[C@@H](CNCc2ccccc2)CO3)N1 [Example 45, 2-(Benzylamino)-methyl-6-chloro-2,3,8,9-tetrahydro-7H-1,4-dioxino[2,3-e]indol-8-one]	970	
O=C1Cc2c(c(Cl)cc3c2O[C@@H](CNCc2ccc(F)cc2)CO3)N1 [Example 46, 6-Chloro-2-[(4-fluoro-benzylaimino)-methyl]-2,3,8,9-tetrahydro-7H-1,4-dioxino[2,3-e_]indol-8-one]	1000	
